Measurements from patent publication US4212862A, “O,O-Diaryl-1-acyloxy-2,2,2-trichloroethylphosphonates and fungicides based thereon” (priority 1978, dated 1980).
Where “and” joins values, the source holds several entries; their conditions need not be identical. Equal entries are not always repeated. Where two headings read alike, the source gives them in different places.

Key:
[1] = tested on: stalk rust of wheat (Puccinia graminis); format: in vivo
[2] = Acute peroral toxicity for warm-blooded animals (LD50, LD90); format: in vivo, white mice; conditions: mouse, in vivo, po, Table 2; peroral; read-out: LD50 for white mice
Method: Toxicity (LD50) was evaluated on males and females of white mice with peroral administration of the compounds. A portion of the test compound was mixed with the emulsifier Twin-20 and diluted with distilled water to the required working concentration. Administration of the preparation was effected by means of a metal probe and syringe directly into the stomach of test animals 2-3 hours after feeding. The tests were performed using several doses, 6 animals per each dose. Subsequent observation was effected for two weeks.

[3] = tested on: stalk rust (Puccinia graminis f. tritici); format: in vivo; conditions: in vivo

SMILES: CCC(=O)OC(C(Cl)(Cl)Cl)P(=O)(Oc1ccc(Cl)cc1)Oc1ccc(Cl)cc1 (stereo not drawn) [XXXI]
- Percentage of injury lowered ([1]; in vivo): 82% and 59%
- LD50 at 336 h [2]: > 1000 mg/kg
- Percentage of plants injured with rust, 1-st evaluation [3]: 0.5%
- Percentage of plants injured with rust, 2-nd evaluation [3]: 8.0%
- Weight of 1,000 grains [3]: 18.0 g
- Yield [3]: 13.30 c/ha

SMILES: CCC(=O)OC(C(Cl)(Cl)Cl)P(=O)(Oc1cccc2ccccc12)Oc1cccc2ccccc12 (stereo not drawn) [XLIII]
- Percentage of injury lowered ([1]; in vivo): 89% and 72%
- LD50 at 336 h [2]: > 1000 mg/kg

SMILES: Cc1ccccc1OP(=O)(Oc1ccccc1C)C(OC(=O)c1ccccc1)C(Cl)(Cl)Cl (stereo not drawn) [XI]
- LD50 at 336 h [2]: > 1000 mg/kg
- Percentage of plants injured with rust, 1-st evaluation [3]: 0.5%
- Percentage of plants injured with rust, 2-nd evaluation [3]: 8.0%
- Weight of 1,000 grains [3]: 17.8 g
- Yield [3]: 12.40 c/ha

SMILES: CCCC(=O)OC(C(Cl)(Cl)Cl)P(=O)(Oc1ccc(F)cc1)Oc1ccc(F)cc1 (stereo not drawn) [XXXIV]
- Percentage of injury lowered ([1]; in vivo): 99% and 95%
- Percentage of plants injured with rust, 1-st evaluation [3]: 0.5%
- Percentage of plants injured with rust, 2-nd evaluation [3]: 7.4%
- Weight of 1,000 grains [3]: 19.6 g
- Yield [3]: 15.10 c/ha

SMILES: O=C(OC(C(Cl)(Cl)Cl)P(=O)(Oc1ccc(F)cc1)Oc1ccc(F)cc1)c1ccccc1 (stereo not drawn) [XXXVII]
- LD50 at 336 h [2]: > 1000 mg/kg

SMILES: CC(=O)OC(C(Cl)(Cl)Cl)P(=O)(Oc1ccc(Cl)c(C)c1)Oc1ccc(Cl)c(C)c1 (stereo not drawn) [XL]
- Percentage of injury lowered ([1]; in vivo): 95% and 76%
- LD50 at 336 h [2]: > 1000 mg/kg

SMILES: CCC(=O)OC(C(Cl)(Cl)Cl)P(=O)(Oc1ccc(F)cc1)Oc1ccc(F)cc1 (stereo not drawn) [XXXIII]
- Percentage of injury lowered ([1]; in vivo): 100% and 62%
- LD50 at 336 h [2]: > 1000 mg/kg

SMILES: CC(=O)OC(C(Cl)(Cl)Cl)P(=O)(Oc1ccc(Cl)cc1)Oc1ccc(Cl)cc1 (stereo not drawn) [XXX]
- Percentage of injury lowered ([1]; in vivo): 89% and 68%
- LD50 at 336 h [2]: > 1000 mg/kg
- Percentage of plants injured with rust, 1-st evaluation [3]: 0.5%
- Percentage of plants injured with rust, 2-nd evaluation [3]: 7.0%
- Weight of 1,000 grains [3]: 20.9 g
- Yield [3]: 16.70 c/ha

SMILES: CCCC(=O)OC(C(Cl)(Cl)Cl)P(=O)(Oc1ccc(C)cc1)Oc1ccc(C)cc1 (stereo not drawn) [XX]
- Percentage of injury lowered ([1]; in vivo): 97%
- LD50 at 336 h [2]: > 1000 mg/kg
- Percentage of plants injured with rust, 1-st evaluation [3]: 0.5%
- Percentage of plants injured with rust, 2-nd evaluation [3]: 7.5%
- Weight of 1,000 grains [3]: 18.2 g
- Yield [3]: 13.45 c/ha

SMILES: CCCCCCC(=O)OC(C(Cl)(Cl)Cl)P(=O)(Oc1ccc(-c2ccccc2)cc1)Oc1ccc(-c2ccccc2)cc1 (stereo not drawn) [XLV]
- Percentage of injury lowered ([1]; in vivo): 72%
- LD50 at 336 h [2]: > 1000 mg/kg

SMILES: CCCCCCC(=O)OC(C(Cl)(Cl)Cl)P(=O)(Oc1cc(C)cc(C)c1)Oc1cc(C)cc(C)c1 (stereo not drawn) [XXIX]
- Percentage of injury lowered ([1]; in vivo): 85%
- LD50 at 336 h [2]: > 1000 mg/kg
- Percentage of plants injured with rust, 1-st evaluation [3]: 0.5%
- Percentage of plants injured with rust, 2-nd evaluation [3]: 9.5%
- Weight of 1,000 grains [3]: 14.8 g
- Yield [3]: 9.75 c/ha

SMILES: CCC(=O)OC(C(Cl)(Cl)Cl)P(=O)(Oc1ccc(Cl)c(C)c1)Oc1ccc(Cl)c(C)c1 (stereo not drawn) [XLI]
- Percentage of injury lowered ([1]; in vivo): 91% and 53%
- LD50 at 336 h [2]: > 1000 mg/kg

SMILES: CCC(=O)OC(C(Cl)(Cl)Cl)P(=O)(Oc1ccccc1C)Oc1ccccc1C (stereo not drawn) [VIII]
- Percentage of injury lowered ([1]; in vivo): 96% and 76%
- LD50 at 336 h [2]: > 1000 mg/kg
- Percentage of plants injured with rust, 1-st evaluation [3]: 0.5%
- Percentage of plants injured with rust, 2-nd evaluation [3]: 8.5%
- Weight of 1,000 grains [3]: 15.3 g
- Yield [3]: 10.15 c/ha

SMILES: CCCC(=O)OC(C(Cl)(Cl)Cl)P(=O)(Oc1cccc2ccccc12)Oc1cccc2ccccc12 (stereo not drawn) [XLIV]
- Percentage of injury lowered ([1]; in vivo): 71%
- LD50 at 336 h [2]: > 1000 mg/kg

SMILES: CCCC(=O)OC(C(Cl)(Cl)Cl)P(=O)(Oc1ccc(-c2ccccc2)cc1)Oc1ccc(-c2ccccc2)cc1 (stereo not drawn) [XLVIII]
- Percentage of injury lowered ([1]; in vivo): 67%
- LD50 at 336 h [2]: > 1000 mg/kg

SMILES: CCCCCCC(=O)OC(C(Cl)(Cl)Cl)P(=O)(Oc1ccc(F)cc1)Oc1ccc(F)cc1 (stereo not drawn) [XXXV]
- LD50 at 336 h [2]: > 1000 mg/kg

SMILES: CC(=O)OC(C(Cl)(Cl)Cl)P(=O)(Oc1cc(C)cc(C)c1)Oc1cc(C)cc(C)c1 (stereo not drawn) [XXVI]
- Percentage of injury lowered ([1]; in vivo): 84%
- LD50 at 336 h [2]: > 1000 mg/kg
- Percentage of plants injured with rust, 1-st evaluation [3]: 0.5%
- Percentage of plants injured with rust, 2-nd evaluation [3]: 10.0%
- Weight of 1,000 grains [3]: 16.7 g
- Yield [3]: 11.70 c/ha

SMILES: CC(=O)OC(C(Cl)(Cl)Cl)P(=O)(Oc1ccc(Cl)cc1C)Oc1ccc(Cl)cc1C (stereo not drawn) [XXXVIII]
- Percentage of injury lowered ([1]; in vivo): 92% and 53%
- LD50 at 336 h [2]: > 500 mg/kg

SMILES: CCC(=O)OC(C(Cl)(Cl)Cl)P(=O)(Oc1cc(C)cc(C)c1)Oc1cc(C)cc(C)c1 (stereo not drawn) [XXVII]
- Percentage of injury lowered ([1]; in vivo): 92%
- LD50 at 336 h [2]: > 1000 mg/kg
- Percentage of plants injured with rust, 1-st evaluation [3]: 0.5%
- Percentage of plants injured with rust, 2-nd evaluation [3]: 10.5%
- Weight of 1,000 grains [3]: 17.1 g
- Yield [3]: 11.50 c/ha

SMILES: CCCCCCC(=O)OC(C(Cl)(Cl)Cl)P(=O)(Oc1ccccc1)Oc1ccccc1 (stereo not drawn) [IV]
- Percentage of injury lowered ([1]; in vivo): 98% and 74%
- LD50 at 336 h [2]: > 1000 mg/kg
- Percentage of plants injured with rust, 1-st evaluation [3]: 0.5%
- Percentage of plants injured with rust, 2-nd evaluation [3]: 6.5%
- Weight of 1,000 grains [3]: 23.8 g
- Yield [3]: 20.00 c/ha

SMILES: CCC(=O)OC(C(Cl)(Cl)Cl)P(=O)(Oc1cccc(C)c1)Oc1cccc(C)c1 (stereo not drawn) [XIII]
- Percentage of injury lowered ([1]; in vivo): 98% and 85%
- LD50 at 336 h [2]: > 1000 mg/kg
- Percentage of plants injured with rust, 1-st evaluation [3]: 0.5%
- Percentage of plants injured with rust, 2-nd evaluation [3]: 10.0%
- Weight of 1,000 grains [3]: 16.9 g
- Yield [3]: 12.05 c/ha

SMILES: CC(=O)OC(C(Cl)(Cl)Cl)P(=O)(Oc1ccc(-c2ccccc2)cc1)Oc1ccc(-c2ccccc2)cc1 (stereo not drawn) [XLVI]
- LD50 at 336 h [2]: > 1000 mg/kg

SMILES: CCCC(=O)OC(C(Cl)(Cl)Cl)P(=O)(Oc1cc(C)cc(C)c1)Oc1cc(C)cc(C)c1 (stereo not drawn) [XXVIII]
- Percentage of injury lowered ([1]; in vivo): 73%
- LD50 at 336 h [2]: > 1000 mg/kg
- Percentage of plants injured with rust, 1-st evaluation [3]: 0.5%
- Percentage of plants injured with rust, 2-nd evaluation [3]: 7.0%
- Weight of 1,000 grains [3]: 16.6 g
- Yield [3]: 11.60 c/ha

SMILES: CCC(=O)OC(C(Cl)(Cl)Cl)P(=O)(Oc1ccc(Cl)cc1C)Oc1ccc(Cl)cc1C (stereo not drawn) [XXXIX]
- LD50 at 336 h [2]: > 500 mg/kg

SMILES: CCCCC(CC)C(=O)OC(C(Cl)(Cl)Cl)P(=O)(Oc1ccccc1)Oc1ccccc1 (stereo not drawn) [V]
- Percentage of injury lowered ([1]; in vivo): 74% and 61%
- LD50 at 336 h [2]: > 1000 mg/kg
- Percentage of plants injured with rust, 1-st evaluation [3]: 0.5%
- Percentage of plants injured with rust, 2-nd evaluation [3]: 13.0%
- Weight of 1,000 grains [3]: 14.8 g
- Yield [3]: 9.50 c/ha

SMILES: CCCCC(CC)C(=O)OC(C(Cl)(Cl)Cl)P(=O)(Oc1ccc(F)cc1)Oc1ccc(F)cc1 (stereo not drawn) [XXXVI]
- LD50 at 336 h [2]: > 1000 mg/kg

SMILES: O=P(Oc1ccccc1)(Oc1ccccc1)C(O)C(Cl)(Cl)Cl (stereo not drawn) [reference compound]
- Percentage of injury lowered ([1]; in vivo): 71% and 61%
- LD50 at 336 h [2]: > 400 mg/kg

SMILES: CC(=O)OC(C(Cl)(Cl)Cl)P(=O)(Oc1cccc2ccccc12)Oc1cccc2ccccc12 (stereo not drawn) [XLII]
- Percentage of injury lowered ([1]; in vivo): 92% and 87%
- LD50 at 336 h [2]: > 1000 mg/kg

SMILES: COP(=O)(OC)C(OC(C)=O)C(Cl)(Cl)Cl (stereo not drawn) [chloracetophos, O,O-dimethyl-1-acetoxy-2,2,2-trichloroethylphosphonate, reference compound]
- Percentage of injury lowered ([1]; at a concentration of 0.02%, sprayed 3 days before inoculation): 10%
- Percentage of injury lowered ([1]; at a concentration of 0.1%, sprayed 3 days before inoculation): 54%
- LD50 at 336 h [2]: > 1000 mg/kg

SMILES: CCCCCCCCc1ccc(OP(=O)(Oc2ccc(CCCCCCCC)cc2)C(OC(=O)CC)C(Cl)(Cl)Cl)cc1 (stereo not drawn) [XXV]
- LD50 at 336 h [2]: > 1000 mg/kg
- Percentage of plants injured with rust, 1-st evaluation [3]: 0.5%
- Percentage of plants injured with rust, 2-nd evaluation [3]: 10.0%
- Weight of 1,000 grains [3]: 16.0 g
- Yield [3]: 11.10 c/ha

SMILES: CCCCC(CC)C(=O)OC(C(Cl)(Cl)Cl)P(=O)(Oc1cccc(C)c1)Oc1cccc(C)c1 (stereo not drawn) [XVI]
- Percentage of injury lowered ([1]; in vivo): 86%
- LD50 at 336 h [2]: > 1000 mg/kg

SMILES: CCCC(=O)OC(C(Cl)(Cl)Cl)P(=O)(Oc1ccccc1C)Oc1ccccc1C (stereo not drawn) [IX]
- LD50 at 336 h [2]: > 1000 mg/kg

SMILES: CCC(=O)OC(C(Cl)(Cl)Cl)P(=O)(Oc1ccc(-c2ccccc2)cc1)Oc1ccc(-c2ccccc2)cc1 (stereo not drawn) [XLVII]
- LD50 at 336 h [2]: > 1000 mg/kg

SMILES: CC(=O)OC(C(Cl)(Cl)Cl)P(=O)(Oc1ccc(F)cc1)Oc1ccc(F)cc1 (stereo not drawn) [XXXII]
- Percentage of injury lowered ([1]; in vivo): 100% and 84%
- LD50 at 336 h [2]: > 1000 mg/kg

SMILES: Cc1cccc(OP(=O)(Oc2cccc(C)c2)C(OC(=O)c2ccccc2)C(Cl)(Cl)Cl)c1 (stereo not drawn) [XVII]
- LD50 at 336 h [2]: > 1000 mg/kg

SMILES: CCCCC(CC)C(=O)OC(C(Cl)(Cl)Cl)P(=O)(Oc1ccccc1C)Oc1ccccc1C (stereo not drawn) [X]
- LD50 at 336 h [2]: > 1000 mg/kg
